{"source": "patent US11661399B2", "about": "“Methods and compositions for preventing degradation of dimethyl trisulfide” (priority 2018, dated 2023)", "key": {"[1]": {"test": "DMTS degradation over 14 days at 54° C. (gas chromatograph, Day 0 vs Day 14)", "format": "physicochemical", "settings": "water + MDEA, pH lowered to 2, two weeks at 54° C.", "description": "(§1) EPA accelerated stability guidelines call for storage of compositions at 54° C. for two weeks. This is considered to be the equivalent to storing compositions for one year at room temperature. These conditions were applied to the following studies to ensure that DMTS can be formulated in compliance with EPA guidelines.\nIn this example, various concentrations of DMTS in water, ethanol (EtOH), and propylene glycol (PG), with and without MDEA, were prepared and tested for degradation. The pH was adjusted to 2, 7, or 12+/−0.5 with sodium hydroxide or hydrochloric acid. The DMTS concentration was measured by gas chromatograph on Day 0 and Day 14 and the percent degradation calculated from those values. The formulas were capped and stored at 54° C. for two weeks."}, "[2]": {"test": "Accelerated stability storage: DMTS recovery over time in solution", "format": "physicochemical", "settings": "for DMTS degraded: 14 days at 54° C.", "description": "as §1\n120 ppm DMTS only is compared to 120 ppm DMTS with 420 ppm MDEA. Using the accelerated conditions described above, DMTS in water was still observed to be degrading over time.\nVarious conditions were modified to improve the overall stability of DMTS in solution. First, the pH was lowered by buffering the solution. It was predicted that a lower pH might prevent the catalyzation of DMTS breakdown. The solution was buffered to a pH of 6 and compared to a control. 32 ppm DMTS was stored in glass at 40° C. for 7 days, then stored at 54° C. for an additional 15 days.\nDMDS was added to the DMTS in this example. It was hypothesized that if the breakdown pathway of DMTS to DMDS exists in equilibrium, additional DMDS would stabilize the breakdown pathway. DMDS was added to formulas containing DMTS only and DMTS with MDEA.\nIt was hypothesized that propylene glycol (PG) could have a similar effect. Samples were prepared with 8 ppm and 4 ppm DMTS in water as controls. Experimental samples included 8 ppm DMTS with 1% PG or 10% PG. A sample was also prepared in an HDPE container that was not fluorinated.\nThis example examined the effects of fluorination of HDPE containers on the stability of DMTS. Stability of DMTS was recorded for storage at 54° C. over the course of 14 days. Glass containers were used as a control. HDPE containers were tested having no fluorination (F0), Level 3 fluorination (F3), and Level 5 fluorination (F5). Samples of DMTS were prepared to a dilution of 8 ppm DMTS in water with 10% PG.\nGiven the improvements seen with 10% PG used as solvent, higher concentrations of PG were tested. 0.28% DMTS in 100% PG was tested for stability over two weeks at 54° C. Storage in glass containers was compared to HDPE containers with Level 3 fluorination.\nOther solvents were tested without dilution with water. Samples of 0.03% DMTS were prepared in 100% solvent. The solvents tested were ethanol in a glass container, PG in a glass container, PG in a non-fluorinated HDPE container, and glycerol in a glass container.\nIn this example, 0.03 wt-% (300 ppm) DMTS was dissolved into solvent consisting of 100% ethanol (EtOH) or 100% propylene glycol (PG). This study is very similar to Example 7. Recovery of DMTS was recorded over the course of 14 days. The DMTS solutions were stored in the accelerated conditions of 54° C. Less than 10% DMTS was degraded over the course of 14 days for both EtOH and PG.\nIn this example, a lower concentration of DMTS was used to produce a use composition. 32 ppm DMTS was dissolved in either a 100% water solution or a combination of 10% PG and 90% water. The same accelerated conditions were used for 14 days. Over 70% of DMTS was recovered with water as the only solvent. However, using a 10% PG solution in water improved DMTS stability, providing greater than 80% recovery.\nEven lower concentrations of DMTS were examined to determine if further dilution of the concentrate affects stability of DMTS. Solutions including 8 ppm DMTS were prepared. DMTS was dissolved in water, a solution of 1 wt-% PG in water, and a solution 10 wt-% PG in water. […] The reduced quantity of DMTS did have a slight negative effect on stability.\nFinally, solutions including 1 ppm DMTS were examined to determine if use compositions including small amounts of DMTS can remain stable over the course of the two week testing period at 54° C. […] Hard water had the greatest negative effect on DMTS stability."}}}
{"smiles": "CSSSC", "note": "[DMTS, dimethyl trisulfide]", "values": [{"measurement": "DMTS degraded", "setting": "[1]", "value": 20, "unit": "%"}, {"measurement": "DMTS remaining in solution", "setting": "[2]; 1 ppm DMTS in hard water, day 14, 54° C.", "value": "no DMTS remained"}, {"measurement": "DMTS stability (in words)", "setting": "[2]; 8 ppm DMTS in water with 10% PG, HDPE Level 5 fluorination (F5), 54° C., 14 days", "value": "best results which were similar to the glass containers"}, {"measurement": "DMTS degradation (in words)", "setting": "[2]; 8 ppm DMTS in water with 10% PG, non-fluorinated HDPE (F0), 54° C., 14 days", "value": "fastest rates of DMTS degradation"}, {"measurement": "DMTS stability (in words)", "setting": "[2]; 8 ppm DMTS with 1% PG or 10% PG vs water controls", "value": "Some improvement"}, {"measurement": "DMTS recovered", "setting": "[2]; 32 ppm DMTS in 100% water, 14 days accelerated conditions", "value": "Over 70%"}, {"measurement": "DMTS degradation (in words)", "setting": "[2]; 32 ppm DMTS in solution with ethanol, glass, 40° C. 7 days then 54° C. 15 days", "value": "least degradation"}, {"measurement": "DMTS stability (in words)", "setting": "[2]; 32 ppm DMTS, N2 blanket and soft water samples, glass, 40° C. 7 days then 54° C. 15 days", "value": "least stable conditions"}, {"measurement": "DMTS breakdown (in words)", "setting": "[2]; 32 ppm DMTS, pH 6 buffer, glass, 40° C. 7 days then 54° C. 15 days", "value": "faster breakdown than the control"}, {"measurement": "DMTS degradation over time (in words)", "setting": "[2]; 120 ppm DMTS only in water vs 120 ppm DMTS with 420 ppm MDEA, accelerated conditions", "value": "degradation was slowed significantly"}, {"measurement": "DMTS degraded", "setting": "[2]; 300 ppm DMTS in 100% EtOH", "value": "Less than 10%"}, {"measurement": "DMTS degraded", "setting": "[2]; 300 ppm DMTS in 100% PG", "value": "Less than 10%"}, {"measurement": "DMTS breakdown (in words)", "setting": "[2]; DMDS added to DMTS only and DMTS with MDEA formulas", "value": "did not slow down the breakdown of DMTS"}, {"measurement": "DMTS degradation (in words)", "setting": "[2]; sample in non-fluorinated HDPE container, 54° C.", "value": "significantly faster degradation"}]}
